# From article PMC5218480 (PLoS ONE, 2017)
# Tested on: MV-4-11 cells
# Experiment: Gene expression microarray analysis (Affymetrix PrimeView) and GSEA
# Format: cell-based, human
# Parameters: RFU PODN (11730768_x_at) / Fold change /veh PODN (11730768_x_at) / RFU LINC00158 (11744669_a_at) / Fold change /veh LINC00158 (11744669_a_at) / RFU DUSP10 (11751237_a_at) / Fold change /veh DUSP10 (11751237_a_at) / RFU ID3 (11757404_x_at) / Fold change /veh ID3 (11757404_x_at) / RFU PLEKHG5 (11737974_s_at) / Fold change /veh PLEKHG5 (11737974_s_at) / RFU LRRC4B (11730491_at) / Fold change /veh LRRC4B (11730491_at) / RFU GIMAP4 (11747438_a_at) / Fold change /veh GIMAP4 (11747438_a_at) / RFU KRT8 (11758183_x_at) / Fold change /veh KRT8 (11758183_x_at) / RFU CNN1 (11734310_a_at) / Fold change /veh CNN1 (11734310_a_at) / RFU VPS37D (11726825_at) / Fold change /veh VPS37D (11726825_at) / RFU C10orf10 (11716522_x_at) / Fold change /veh C10orf10 (11716522_x_at) / RFU KIR2DL2 /// KIR2DL4 /// KIR2DL5A /// KIR2DL5B /// KIR2DS1 /// KIR2DS2 /// KIR2DS3 /// KIR2DS4 /// KIR3DL3 /// KIR3DL3 /// KIR3DS1 (11738374_at) / Fold change /veh KIR2DL2 /// KIR2DL4 /// KIR2DL5A /// KIR2DL5B /// KIR2DS1 /// KIR2DS2 /// KIR2DS3 /// KIR2DS4 /// KIR3DL3 /// KIR3DL3 /// KIR3DS1 (11738374_at) / RFU C1QL1 (11718748_at) / Fold change /veh C1QL1 (11718748_at) / RFU TMPRSS4 (11747572_a_at) / Fold change /veh TMPRSS4 (11747572_a_at) / RFU HAMP (11756126_x_at) / Fold change /veh HAMP (11756126_x_at) / RFU RNFT2 (11725882_a_at) / Fold change /veh RNFT2 (11725882_a_at) / RFU NR4A2 (11747474_a_at) / Fold change /veh NR4A2 (11747474_a_at) / RFU ABCC12 (11746883_a_at) / Fold change /veh ABCC12 (11746883_a_at) / RFU TMEM136 (11760407_x_at) / Fold change /veh TMEM136 (11760407_x_at) / RFU CLDN22 /// WWC2 (11732394_at) / Fold change /veh CLDN22 /// WWC2 (11732394_at) / RFU HLA-DPB1 (11760878_x_at) / Fold change /veh HLA-DPB1 (11760878_x_at) / RFU SPINT1 (11716480_a_at) / Fold change /veh SPINT1 (11716480_a_at) / RFU GAP43 (11754022_s_at) / Fold change /veh GAP43 (11754022_s_at) / RFU A4GNT (11735810_at) / Fold change /veh A4GNT (11735810_at) / RFU PRB3 (11715151_x_at) / Fold change /veh PRB3 (11715151_x_at) / RFU TUBB4B (11761932_at) / Fold change /veh TUBB4B (11761932_at) / RFU CAPN14 (11732068_a_at) / Fold change /veh CAPN14 (11732068_a_at) / RFU TMCC2 (11721928_a_at) / Fold change /veh TMCC2 (11721928_a_at) / RFU IRGQ (11745062_a_at) / Fold change /veh IRGQ (11745062_a_at) / RFU FAM174B (11720279_a_at) / Fold change /veh FAM174B (11720279_a_at) / RFU TMPRSS4 (11748680_a_at) / Fold change /veh TMPRSS4 (11748680_a_at) / RFU FAM212B (11763350_a_at) / Fold change /veh FAM212B (11763350_a_at) / RFU PLEKHG5 (11743358_a_at) / Fold change /veh PLEKHG5 (11743358_a_at) / RFU ZSCAN30 (11745921_a_at) / Fold change /veh ZSCAN30 (11745921_a_at) / RFU CMKLR1 (11741424_a_at) / Fold change /veh CMKLR1 (11741424_a_at) / RFU LOC101060620 /// MAPK8IP1 (11723275_at) / Fold change /veh LOC101060620 /// MAPK8IP1 (11723275_at) / RFU SPTSSB (11747773_x_at) / Fold change /veh SPTSSB (11747773_x_at) / RFU PRSS12 (11739890_at) / Fold change /veh PRSS12 (11739890_at) / RFU BIN1 (11741810_x_at) / Fold change /veh BIN1 (11741810_x_at) / RFU WNT11 (11732464_a_at) / Fold change /veh WNT11 (11732464_a_at) / RFU C10orf10 (11716521_a_at) / Fold change /veh C10orf10 (11716521_a_at) / RFU C5orf56 (11738089_at) / Fold change /veh C5orf56 (11738089_at) / RFU CYB561 (11721691_x_at) / Fold change /veh CYB561 (11721691_x_at) / RFU ANKRD19P (11752326_a_at) / Fold change /veh ANKRD19P (11752326_a_at) / RFU OR2T12 /// OR2T33 /// OR2T8 (11738714_s_at) / Fold change /veh OR2T12 /// OR2T33 /// OR2T8 (11738714_s_at) / RFU VCAN (11748164_a_at) / Fold change /veh VCAN (11748164_a_at) / RFU JSRP1 (11732532_at) / Fold change /veh JSRP1 (11732532_at) / RFU KRTAP10-11 (11738290_x_at) / Fold change /veh KRTAP10-11 (11738290_x_at) / RFU MYO3A (11730013_a_at) / Fold change /veh MYO3A (11730013_a_at) / RFU EBF3 (11725865_a_at) / Fold change /veh EBF3 (11725865_a_at) / RFU CAMK2N1 (11719241_x_at) / Fold change /veh CAMK2N1 (11719241_x_at) / RFU C5orf56 (11738088_a_at) / Fold change /veh C5orf56 (11738088_a_at) / RFU OLFML3 (11715873_a_at) / Fold change /veh OLFML3 (11715873_a_at) / RFU LOC100653217 /// NTM (11731650_a_at) / Fold change /veh LOC100653217 /// NTM (11731650_a_at) / RFU MAPK11 (11762145_a_at) / Fold change /veh MAPK11 (11762145_a_at) / RFU FIZ1 (11724087_x_at) / Fold change /veh FIZ1 (11724087_x_at) / RFU OASL (11726364_x_at) / Fold change /veh OASL (11726364_x_at) / RFU SOX15 (11748057_x_at) / Fold change /veh SOX15 (11748057_x_at) / RFU CD79A (11719716_a_at) / Fold change /veh CD79A (11719716_a_at) / RFU HIST1H1D (11736915_at) / Fold change /veh HIST1H1D (11736915_at) / RFU CASKIN2 (11723855_a_at) / Fold change /veh CASKIN2 (11723855_a_at) / RFU LOC730098 (11760151_x_at) / Fold change /veh LOC730098 (11760151_x_at) / RFU OR4N2 (11742367_at) / Fold change /veh OR4N2 (11742367_at) / RFU PRRT2 (11749266_a_at) / Fold change /veh PRRT2 (11749266_a_at) / RFU SNX32 (11753110_a_at) / Fold change /veh SNX32 (11753110_a_at) / RFU CDHR5 (11726645_a_at) / Fold change /veh CDHR5 (11726645_a_at) / RFU RCAN1 (11760418_a_at) / Fold change /veh RCAN1 (11760418_a_at) / RFU FAM167A (11723789_a_at) / Fold change /veh FAM167A (11723789_a_at) / RFU FAM26E (11764081_at) / Fold change /veh FAM26E (11764081_at) / RFU ISYNA1 (11749810_s_at) / Fold change /veh ISYNA1 (11749810_s_at) / RFU ACY1 (11761880_at) / Fold change /veh ACY1 (11761880_at) / RFU 11764098_at / Fold change /veh 11764098_at / RFU SAMD14 (11745864_x_at) / Fold change /veh SAMD14 (11745864_x_at) / RFU NPB (11741838_a_at) / Fold change /veh NPB (11741838_a_at) / RFU TMPRSS6 (11731388_a_at) / Fold change /veh TMPRSS6 (11731388_a_at) / RFU KRTAP10-2 (11738614_at) / Fold change /veh KRTAP10-2 (11738614_at) / RFU ARHGAP8 /// PRR5-ARHGAP8 (11727945_x_at) / Fold change /veh ARHGAP8 /// PRR5-ARHGAP8 (11727945_x_at) / RFU KRTAP5-7 /// NADSYN1 (11734609_at) / Fold change /veh KRTAP5-7 /// NADSYN1 (11734609_at) / RFU RASL12 (11751679_a_at) / Fold change /veh RASL12 (11751679_a_at) / RFU CDKN2B (11736163_a_at) / Fold change /veh CDKN2B (11736163_a_at) / RFU PRF1 (11729649_at) / Fold change /veh PRF1 (11729649_at) / RFU, ZNF638 /// ZNF638-IT1 / Fold change vs veh, ZNF638 /// ZNF638-IT1 / RFU, PANK3 / Fold change vs veh, PANK3 / RFU, SH3YL1 / Fold change vs veh, SH3YL1 / RFU, ZEB2 / Fold change vs veh, ZEB2 / RFU, NRIP1 / Fold change vs veh, NRIP1 / RFU, PTTG1IP / Fold change vs veh, PTTG1IP / RFU, CAPN2 / Fold change vs veh, CAPN2 / RFU, MED14 / Fold change vs veh, MED14 / RFU, SNORA58 / Fold change vs veh, SNORA58 / RFU, C1orf63 / Fold change vs veh, C1orf63 / RFU, LRRFIP1 / Fold change vs veh, LRRFIP1 / RFU, NDUFAF7 / Fold change vs veh, NDUFAF7 / RFU, SLC12A2 / Fold change vs veh, SLC12A2 / RFU, IBTK / Fold change vs veh, IBTK / RFU, ESF1 / Fold change vs veh, ESF1 / Fold change vs veh, TMEM50B / RFU, TAOK1 / Fold change vs veh, TAOK1 / RFU, ACBD3 / Fold change vs veh, ACBD3 / RFU, TMA16 / Fold change vs veh, TMA16 / RFU, RWDD3 / Fold change vs veh, RWDD3 / RFU, BCAT1 / Fold change vs veh, BCAT1 / RFU, EDEM3 / Fold change vs veh, EDEM3 / RFU, TMEM33 / Fold change vs veh, TMEM33 / RFU, WDR75 / Fold change vs veh, WDR75 / RFU, AHCTF1 / Fold change vs veh, AHCTF1 / RFU, TFRC / Fold change vs veh, TFRC / RFU, ZDHHC17 / Fold change vs veh, ZDHHC17 / RFU, NOM1 / Fold change vs veh, NOM1 / RFU, ARL8B / Fold change vs veh, ARL8B / RFU, ZBTB11 / Fold change vs veh, ZBTB11 / RFU, TAMM41 / Fold change vs veh, TAMM41 / RFU, KIAA1704 /// LOC100996395 / Fold change vs veh, KIAA1704 /// LOC100996395 / RFU, ING1 / Fold change vs veh, ING1 / RFU, TRMT61B / Fold change vs veh, TRMT61B / RFU, FUBP3 / Fold change vs veh, FUBP3 / RFU, TP53 / Fold change vs veh, TP53 / RFU, TNKS2 / Fold change vs veh, TNKS2 / RFU, ZFP14 / Fold change vs veh, ZFP14 / RFU, ACTR2 / Fold change vs veh, ACTR2 / RFU, PPP3R1 / Fold change vs veh, PPP3R1 / RFU, PIK3R1 / Fold change vs veh, PIK3R1 / RFU, HNRNPA1 / Fold change vs veh, HNRNPA1 / RFU, RNF170 / Fold change vs veh, RNF170 / RFU, ZNF28 / Fold change vs veh, ZNF28 / RFU, RNGTT / Fold change vs veh, RNGTT / RFU, OGT / Fold change vs veh, OGT / RFU, BRD1 / Fold change vs veh, BRD1 / RFU, MARS / Fold change vs veh, MARS / RFU, ZNF655 / Fold change vs veh, ZNF655 / RFU, FAHD1 / Fold change vs veh, FAHD1 / RFU, BDP1 / Fold change vs veh, BDP1 / RFU, LRRCC1 / Fold change vs veh, LRRCC1 / RFU, ARID1A / Fold change vs veh, ARID1A / RFU, ZNF146 / Fold change vs veh, ZNF146 / RFU, ZNF330 / Fold change vs veh, ZNF330 / RFU, GPN3 / Fold change vs veh, GPN3 / RFU, C9orf123 / Fold change vs veh, C9orf123 / RFU, N4BP2L2 / Fold change vs veh, N4BP2L2 / RFU, ARFIP1 / Fold change vs veh, ARFIP1 / RFU, FAM179B / Fold change vs veh, FAM179B / RFU, BCL10 / Fold change vs veh, BCL10 / RFU, UHRF1BP1L / Fold change vs veh, UHRF1BP1L / RFU, BET1 / Fold change vs veh, BET1 / RFU, CNOT2 / Fold change vs veh, CNOT2 / RFU, ZNF268 / Fold change vs veh, ZNF268 / Fold change vs veh, ZNF507 / RFU, DGCR2 / Fold change vs veh, DGCR2 / RFU, WDSUB1 / Fold change vs veh, WDSUB1 / Fold change vs veh, HSP90B1 /// MIR3652 / RFU, ADSS / Fold change vs veh, ADSS / RFU, GK / Fold change vs veh, GK / RFU, ZNF148 / Fold change vs veh, ZNF148 / RFU, TAF9 / Fold change vs veh, TAF9 / RFU, SLC1A5 / Fold change vs veh, SLC1A5 / RFU, SLMO2 / Fold change vs veh, SLMO2 / RFU, ABCC4 / Fold change vs veh, ABCC4 / RFU, LOC101060439 /// RAP1B / Fold change vs veh, LOC101060439 /// RAP1B / RFU, RFX7 / Fold change vs veh, RFX7 / RFU, GTPBP10 / Fold change vs veh, GTPBP10 / RFU, CNEP1R1 / Fold change vs veh, CNEP1R1 / RFU, BIVM-ERCC5 /// ERCC5 / Fold change vs veh, BIVM-ERCC5 /// ERCC5 / RFU, ILF3 / Fold change vs veh, ILF3 / RFU 11762660_at / Fold change /veh 11762660_at / RFU VCAN (11757783_s_at) / Fold change /veh VCAN (11757783_s_at) / RFU DDX43 (11728927_at) / Fold change /veh DDX43 (11728927_at) / RFU KRT8 (11758188_x_at) / Fold change /veh KRT8 (11758188_x_at) / RFU NKD1 (11759106_at) / Fold change /veh NKD1 (11759106_at) / RFU SRD5A1 (11742802_a_at) / Fold change /veh SRD5A1 (11742802_a_at) / RFU TPSAB1 /// TPSB2 (11721975_s_at) / Fold change /veh TPSAB1 /// TPSB2 (11721975_s_at) / RFU GSTM3 (11746129_a_at) / Fold change /veh GSTM3 (11746129_a_at) / RFU IL23R (11737362_x_at) / Fold change /veh IL23R (11737362_x_at) / RFU TMEM51 (11727254_a_at) / Fold change /veh TMEM51 (11727254_a_at) / RFU PIWIL2 (11732686_x_at) / Fold change /veh PIWIL2 (11732686_x_at) / RFU ORM1 (11744905_x_at) / Fold change /veh ORM1 (11744905_x_at) / RFU CCDC152 (11743942_at) / Fold change /veh CCDC152 (11743942_at) / RFU ECM1 (11717891_a_at) / Fold change /veh ECM1 (11717891_a_at) / RFU IL23R (11748794_a_at) / Fold change /veh IL23R (11748794_a_at) / RFU TNFAIP8L3 (11732012_x_at) / Fold change /veh TNFAIP8L3 (11732012_x_at) / RFU MBOAT4 (11741988_at) / Fold change /veh MBOAT4 (11741988_at) / RFU 11764193_at / Fold change /veh 11764193_at / RFU TMEM53 (11763286_at) / Fold change /veh TMEM53 (11763286_at) / RFU MAGEB2 (11727129_at) / Fold change /veh MAGEB2 (11727129_at) / RFU TMEM200A (11744735_a_at) / Fold change /veh TMEM200A (11744735_a_at) / RFU CCDC152 (11751479_a_at) / Fold change /veh CCDC152 (11751479_a_at) / RFU FAM211A (11726209_a_at) / Fold change /veh FAM211A (11726209_a_at) / RFU RGS16 (11746705_a_at) / Fold change /veh RGS16 (11746705_a_at) / RFU VCAN (11755009_s_at) / Fold change /veh VCAN (11755009_s_at) / RFU RHOB (11743442_s_at) / Fold change /veh RHOB (11743442_s_at) / RFU RGS16 (11720943_a_at) / Fold change /veh RGS16 (11720943_a_at) / RFU RGS16 (11720944_at) / Fold change /veh RGS16 (11720944_at) / RFU, VPS4B / Fold change vs veh, VPS4B / RFU, CREB1 / Fold change vs veh, CREB1 / RFU, DNAJC13 / Fold change vs veh, DNAJC13 / RFU, GNAQ / Fold change vs veh, GNAQ / RFU, CDK5R1 / Fold change vs veh, CDK5R1 / RFU, ZRANB3 / Fold change vs veh, ZRANB3 / RFU, CUL4A / Fold change vs veh, CUL4A / RFU, CCNY / Fold change vs veh, CCNY / RFU, UFL1 / Fold change vs veh, UFL1 / RFU, COG3 / Fold change vs veh, COG3 / RFU, DIAPH2 / Fold change vs veh, DIAPH2 / RFU, SKA2 / Fold change vs veh, SKA2 / RFU, AFF3 / Fold change vs veh, AFF3 / RFU, LMF1 / Fold change vs veh, LMF1 / RFU, IPO11 / Fold change vs veh, IPO11 / RFU, DFFB / Fold change vs veh, DFFB / RFU, FOXP1 / Fold change vs veh, FOXP1 / RFU, CARD8 / Fold change vs veh, CARD8 / RFU, STRN3 / Fold change vs veh, STRN3 / RFU, ADK / Fold change vs veh, ADK / RFU, RASSF2 / Fold change vs veh, RASSF2 / RFU, WIPF1 / Fold change vs veh, WIPF1 / RFU, LARP1B / Fold change vs veh, LARP1B / RFU, RASA1 / Fold change vs veh, RASA1 / RFU, RB1 / Fold change vs veh, RB1 / RFU, PPFIA1 / Fold change vs veh, PPFIA1 / RFU, MAT2A / Fold change vs veh, MAT2A / RFU, CCT5 / Fold change vs veh, CCT5 / RFU, WDR92 / Fold change vs veh, WDR92 / RFU, CUX1 / Fold change vs veh, CUX1 / RFU, TTC7A / Fold change vs veh, TTC7A / RFU, TMEM135 / Fold change vs veh, TMEM135 / RFU, DEPTOR / Fold change vs veh, DEPTOR / RFU, CPM / Fold change vs veh, CPM / RFU, DNAJB6 / Fold change vs veh, DNAJB6 / RFU, CACNA2D3 / Fold change vs veh, CACNA2D3 / RFU, DTX4 / Fold change vs veh, DTX4 / RFU, TFCP2 / Fold change vs veh, TFCP2 / RFU, GMCL1 /// GMCL1P1 / Fold change vs veh, GMCL1 /// GMCL1P1 / RFU, AEBP2 / Fold change vs veh, AEBP2 / RFU, SNHG1 /// SNORD22 /// SNORD25 /// SNORD26 /// SNORD27 /// SNORD28 /// SNORD29 /// SNORD31 / Fold change vs veh, SNHG1 /// SNORD22 /// SNORD25 /// SNORD26 /// SNORD27 /// SNORD28 /// SNORD29 /// SNORD31 / Fold change (Aza/veh), C12orf56 (ProbeSet 11735607_a_at) / Fold change (ACY-1035/veh), C12orf56 (ProbeSet 11735607_a_at) / Fold change (Aza/veh), FGFR1OP (ProbeSet 11751329_s_at) / Fold change (ACY-1035/veh), FGFR1OP (ProbeSet 11751329_s_at) / Fold change (Aza/veh), VPS36 (ProbeSet 11739960_a_at) / Fold change (ACY-1035/veh), VPS36 (ProbeSet 11739960_a_at) / RFU SYPL1 (11715823_x_at) / Fold change /veh SYPL1 (11715823_x_at) / RFU IGFBP7 (11715501_s_at) / Fold change /veh IGFBP7 (11715501_s_at) / RFU REEP3 (11722064_at) / Fold change /veh REEP3 (11722064_at) / RFU IGLL1 (11728026_x_at) / Fold change /veh IGLL1 (11728026_x_at): dose or concentration left out as unconfirmed
# Conditions: MV-4-11 cells, 48 hours
smiles,measurement,value
Nc1ccc(-c2cccs2)cc1NC(=O)c1ccc2c(c1)cc(C1CC1)n2CCN1CCOCC1 [ACY-1035],RFU C5orf56 (11738088_a_at),66.78 RFU
